pEC50: −log10 of the molar value. Converted amounts (≈) assume the structure as drawn. Like-named read-outs stand apart in the source and are kept apart here.
Assays:
N. gonorrhoeae WHO G = assay: Liquid broth MIC in Fastidious broth; format: cell-based; details: Neisseria gonorrhoeae, Fastidious broth
Procedure, shortened: (§1)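 Colonies were swabbed from chocolate agar after 24 h growth and standardised by optical density at 600 nm. Compounds were serially diluted twofold in Fastidious broth, and bacteria added to give 5×10^5 CFU/mL. After about 24 h at 36 °C in 5% CO2, the lowest concentration allowing under 10% growth was taken as MIC.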

[1] = test system: N. gonorrhoeae ATCC 49226; assay: Liquid broth MIC in Fastidious broth; format: cell-based; details: Neisseria gonorrhoeae, ATCC49226, Fastidious broth
Procedure, shortened: as §1

N. gonorrhoeae WHO Z = assay: Liquid broth MIC in Fastidious broth; format: cell-based; details: Neisseria gonorrhoeae
Procedure, shortened: (§2)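 Mosaic PBP2 producers; colonies from 24 h chocolate agar, saline suspension, OD600. Fastidious broth, 2-fold dilutions, 5×10^5 CFU/mL. ~24 h, 36 °C, 5% CO2; visual MIC, <10% growth cutoff.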

N. gonorrhoeae H041 = assay: Liquid broth MIC in Fastidious broth; format: cell-based; details: Neisseria gonorrhoeae
Procedure, shortened: as §2

N. gonorrhoeae WHO Q = assay: Liquid broth MIC in Fastidious broth; format: cell-based; details: Neisseria gonorrhoeae
Procedure, shortened: as §2

N. gonorrhoeae WHO K = assay: Liquid broth MIC in Fastidious broth; format: cell-based; details: Neisseria gonorrhoeae
Procedure, shortened: as §2

N. gonorrhoeae FA1090 = assay: Liquid broth MIC in Fastidious broth; format: cell-based; details: Neisseria gonorrhoeae, Fastidious broth
Procedure, shortened: as §1

N. gonorrhoeae WHO L = assay: Liquid broth MIC in Fastidious broth; format: cell-based; details: Neisseria gonorrhoeae, Fastidious broth
Procedure, shortened: as §1

P. aeruginosa PBP3 = biological target: T1, P. aeruginosa PBP3 (Pseudomonas aeruginosa, UniProt G3XD46); assay: Bocillin-FL fluorescence polarization competition binding assay, P. aeruginosa PBP3; details: fluorescence polarization competition binding assay using Bocillin-FL
T1 construct: made in house
Procedure, shortened: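 Binding of boronic acid inhibitors to purified Pseudomonas aeruginosa (PA01) PBP3 was measured by fluorescence polarization competition with Bocillin-FL, a fluorescent penicillin V. Reactions of 80 μl contained 0.75 μM PBP3 and 0.1 μM Bocillin-FL in 50 mM Hepes (pH 8.0), 300 mM NaCl and 5% (v/v) glycerol, in black 384-well plates. FP (Excitation 490 nm, Emission 520 nm) was read for up to 60 minutes. EC50 is the concentration that halves PBP-bound Bocillin-FL.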

E. coli K12 PBP3 = biological target: T2, E. coli K12 PBP3 (Escherichia coli, UniProt P0AD68); assay: biochemical; format: binding
T2 construct: made in house
Procedure, shortened: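 Fluorescence polarization (ex 490/em 520 nm) competition of inhibitors against Bocillin-FL at 0.1 μM, read up to 60 min. Final PBP levels: E. coli PBP3 1.5 μM; A. baumannii PBP2 2.5 μM, PBP3 0.2 μM in Tris pH 8.0/NaCl/glycerol/Tween 20; N. gonorrhoeae PBP2 […] in Hepes pH 8.0/NaCl/glycerol. EC50 = concentration halving PBP-bound Bocillin-FL.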

[2] = N. gonorrhoeae strain WHO G, read-out: Minimum Inhibitory Concentration, N. gonorrhoeae WHO G
[3] = N. gonorrhoeae strain ATCC 49226, read-out: Minimum Inhibitory Concentration, N. gonorrhoeae ATCC 49226
[4] = read-out: Minimum Inhibitory Concentration, N. gonorrhoeae WHO Z
[5] = H041, read-out: Minimum Inhibitory Concentration, N. gonorrhoeae H041
[6] = read-out: Minimum Inhibitory Concentration, N. gonorrhoeae WHO Q
[7] = read-out: Minimum Inhibitory Concentration, N. gonorrhoeae WHO K
[8] = N. gonorrhoeae strain FA1090, read-out: Minimum Inhibitory Concentration, N. gonorrhoeae FA1090
[9] = N. gonorrhoeae strain WHO L, read-out: Minimum Inhibitory Concentration, N. gonorrhoeae WHO L
[10] = N. gonorrhoeae WHO G, read-out: Minimum Inhibitory Concentration, WHO G
[11] = N. gonorrhoeae ATCC 49226, read-out: Minimum Inhibitory Concentration, ATCC 49226
[12] = read-out: Minimum Inhibitory Concentration, WHO Z
[13] = H041, read-out: Minimum Inhibitory Concentration, H041
[14] = read-out: Minimum Inhibitory Concentration, WHO Q
[15] = read-out: Minimum Inhibitory Concentration, WHO K
[16] = N. gonorrhoeae FA1090, read-out: Minimum Inhibitory Concentration, FA1090
[17] = N. gonorrhoeae WHO L, read-out: Minimum Inhibitory Concentration, WHO L

T1 sequence (G3XD46 whole entry): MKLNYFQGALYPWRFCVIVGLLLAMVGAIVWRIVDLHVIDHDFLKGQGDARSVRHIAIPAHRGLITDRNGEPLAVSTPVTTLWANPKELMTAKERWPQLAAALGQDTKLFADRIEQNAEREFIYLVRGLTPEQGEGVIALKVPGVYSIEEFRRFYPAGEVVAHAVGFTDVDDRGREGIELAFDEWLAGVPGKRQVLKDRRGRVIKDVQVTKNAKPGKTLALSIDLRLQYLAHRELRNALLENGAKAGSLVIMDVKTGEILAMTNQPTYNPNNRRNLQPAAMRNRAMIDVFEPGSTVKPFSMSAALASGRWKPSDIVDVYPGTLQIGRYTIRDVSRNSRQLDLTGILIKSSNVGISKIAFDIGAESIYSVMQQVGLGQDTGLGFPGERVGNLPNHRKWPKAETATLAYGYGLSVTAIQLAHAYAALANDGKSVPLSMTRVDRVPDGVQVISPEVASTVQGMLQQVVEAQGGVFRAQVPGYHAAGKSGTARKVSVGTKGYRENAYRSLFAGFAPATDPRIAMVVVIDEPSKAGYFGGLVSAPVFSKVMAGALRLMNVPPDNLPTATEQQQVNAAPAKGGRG
T2 sequence (P0AD68 1-577): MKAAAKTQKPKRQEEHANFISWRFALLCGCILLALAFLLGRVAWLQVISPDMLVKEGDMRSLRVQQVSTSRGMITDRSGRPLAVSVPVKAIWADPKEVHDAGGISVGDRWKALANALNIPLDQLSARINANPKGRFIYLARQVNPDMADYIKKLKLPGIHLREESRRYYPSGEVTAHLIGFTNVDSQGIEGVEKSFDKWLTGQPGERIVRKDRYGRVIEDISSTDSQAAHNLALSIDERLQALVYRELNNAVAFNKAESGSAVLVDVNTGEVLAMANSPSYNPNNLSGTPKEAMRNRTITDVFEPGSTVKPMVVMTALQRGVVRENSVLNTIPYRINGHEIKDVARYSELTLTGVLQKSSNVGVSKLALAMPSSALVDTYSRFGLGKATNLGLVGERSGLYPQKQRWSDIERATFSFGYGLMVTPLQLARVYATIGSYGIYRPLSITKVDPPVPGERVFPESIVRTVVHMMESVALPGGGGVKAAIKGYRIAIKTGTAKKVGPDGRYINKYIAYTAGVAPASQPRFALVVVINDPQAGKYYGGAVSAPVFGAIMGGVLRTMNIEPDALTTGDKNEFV

SMILES | MIC (N. gonorrhoeae WHO G; [2]) [µg/mL] | MIC [1, 3] [µg/mL] | MIC (N. gonorrhoeae WHO Z; [4]) [µg/mL] | MIC (N. gonorrhoeae H041; [5]) [µg/mL] | MIC (N. gonorrhoeae WHO Q; [6]) [µg/mL] | MIC (N. gonorrhoeae WHO K; [7]) [µg/mL] | MIC (N. gonorrhoeae FA1090; [8]) [µg/mL] | MIC (N. gonorrhoeae WHO L; [9]) [µg/mL] | P. aeruginosa PBP3 Potency (P. aeruginosa PBP3) | pEC50 (E. coli K12 PBP3) | MIC (N. gonorrhoeae WHO G; [10]) [µg/mL] | MIC [1, 11] [µg/mL] | MIC (N. gonorrhoeae WHO Z; [12]) [µg/mL] | MIC (N. gonorrhoeae H041; [13]) [µg/mL] | MIC (N. gonorrhoeae WHO Q; [14]) [µg/mL] | MIC (N. gonorrhoeae WHO K; [15]) [µg/mL] | MIC (N. gonorrhoeae FA1090; [16]) [µg/mL] | MIC (N. gonorrhoeae WHO L; [17]) [µg/mL]
CS(=O)(=O)N1CCN(C(=O)N[C@@H](C(=O)N[C@H]2Cc3ccc(F)c(C(=O)O)c3OB2O)c2cc(F)c(O)c(O)c2Cl)C1=O (single isomer, unassigned) [Example 189] | 16 to 32 (≈ 25.3 to 50.6 µM) | 16 to 32 (≈ 25.3 to 50.6 µM) | 16 to 32 (≈ 25.3 to 50.6 µM) | > 64 | 16 to 32 (≈ 25.3 to 50.6 µM) | 16 to 32 (≈ 25.3 to 50.6 µM) | 4 to 8 (≈ 6.32 to 12.6 µM) | > 64 | D (D represents a potency <10 μM) | > 4.52 | – | – | – | – | – | – | – | –
NCCN1CCN(C(=O)N[C@@H](C(=O)N[C@H]2Cc3cccc(C(=O)O)c3OB2O)c2c(O)cc(O)cc2F)C(=O)C1=O (single isomer, unassigned) [Example 194] | 4 to 8 (≈ 6.98 to 14 µM) | 16 to 32 (≈ 27.9 to 55.8 µM) | > 64 | > 64 | > 64 | > 64 | 1 to 2 (≈ 1.74 to 3.49 µM) | > 64 | D (D represents a potency <10 μM) | > 4.52 | – | – | – | – | – | – | – | –
NCCCN1CCN(C(=O)N[C@@H](C(=O)N[C@H]2Cc3cccc(C(=O)O)c3OB2O)c2c(O)cc(O)cc2F)C(=O)C1=O (single isomer, unassigned) [Example 195] | 4 to 8 (≈ 6.81 to 13.6 µM) | 16 to 32 (≈ 27.2 to 54.5 µM) | > 64 | > 64 | > 64 | > 64 | 1 to 2 (≈ 1.7 to 3.41 µM) | > 64 | D (D represents a potency <10 μM) | > 4.52 | – | – | – | – | – | – | – | –
NCCN1CCN(C(=O)N[C@@H](C(=O)N[C@H]2Cc3cccc(C(=O)O)c3OB2O)c2ccc(O)c([N+](=O)[O-])c2)C(=O)C1=O (single isomer, unassigned) [Example 199] | 16 to 32 (≈ 27.4 to 54.8 µM) | 16 to 32 (≈ 27.4 to 54.8 µM) | > 64 | > 64 | > 64 | > 64 | 1 to 2 (≈ 1.71 to 3.42 µM) | > 64 | D (D represents a potency <10 μM) | > 4.52 | – | – | – | – | – | – | – | –
NCCN1CCN(C(=O)N[C@H](C(=O)N[C@H]2Cc3cccc(C(=O)O)c3OB2O)c2ccc(O)c([N+](=O)[O-])c2)C(=O)C1=O (single isomer, unassigned) [Example 200] | > 64 | > 64 | > 64 | > 64 | > 64 | > 64 | 4 to 8 (≈ 6.85 to 13.7 µM) | > 64 | C (C represents a potency between 10 and 30 μM) | < 3.30 | – | – | – | – | – | – | – | –
CCN1CCN(C(=O)N[C@H](C(=O)N[C@H]2Cc3cccc(C(=O)O)c3OB2O)c2ccc(C(=O)O)c(F)c2Cl)C(=O)C1=O (single isomer, unassigned) [Example 202] | – | – | – | – | – | – | – | – | C (C represents a potency between 10 and 30 μM) | 3.30 to 4.52 | 16 to 32 (≈ 26.5 to 52.9 µM) | 16 to 32 (≈ 26.5 to 52.9 µM) | 16 to 32 (≈ 26.5 to 52.9 µM) | > 64 | > 64 | > 64 | 4 to 8 (≈ 6.61 to 13.2 µM) | > 64
CCN1CCN(C(=O)N[C@@H](C(=O)N[C@H]2Cc3cccc(C(=O)O)c3OB2O)c2ccc(C(=O)O)c(F)c2Cl)C(=O)C1=O (single isomer, unassigned) [Example 203] | – | – | – | – | – | – | – | – | D (D represents a potency <10 μM) | > 4.52 | 4 to 8 (≈ 6.61 to 13.2 µM) | 4 to 8 (≈ 6.61 to 13.2 µM) | 4 to 8 (≈ 6.61 to 13.2 µM) | 16 to 32 (≈ 26.5 to 52.9 µM) | 4 to 8 (≈ 6.61 to 13.2 µM) | 16 to 32 (≈ 26.5 to 52.9 µM) | 0.25 to 0.5 (≈ 0.413 to 0.827 µM) | > 64
NCCN1CCN(C(=O)N[C@H](C(=O)N[C@H]2Cc3cccc(C(=O)O)c3OB2O)c2c(F)cccc2F)C(=O)C1=O (single isomer, unassigned) [Example 204] | – | – | – | – | – | – | – | – | B (B represents a potency between 30 μM and 500 μM inclusive) | < 3.30 | > 64 | > 64 | > 64 | > 64 | > 64 | > 64 | 16 to 32 (≈ 28.6 to 57.2 µM) | > 64
NCCN1CCN(C(=O)N[C@@H](C(=O)N[C@H]2Cc3cccc(C(=O)O)c3OB2O)c2c(F)cccc2Cl)C(=O)C1=O (single isomer, unassigned) [Example 205] | – | – | – | – | – | – | – | – | C (C represents a potency between 10 and 30 μM) | 3.30 to 4.52 | > 64 | > 64 | > 64 | > 64 | > 64 | > 64 | 16 to 32 (≈ 27.8 to 55.6 µM) | > 64
NCCN1CCN(C(=O)N[C@H](C(=O)N[C@H]2Cc3cccc(C(=O)O)c3OB2O)c2c(F)cccc2Cl)C(=O)C1=O (single isomer, unassigned) [Example 206] | – | – | – | – | – | – | – | – | B (B represents a potency between 30 μM and 500 μM inclusive) | < 3.30 | > 64 | > 64 | > 64 | > 64 | > 64 | > 64 | > 64 | > 64
CCN1CCN(C(=O)N[C@@H](C(=O)N[C@H]2Cc3ccc(F)c(C(=O)O)c3OB2O)c2c(Cl)cc(O)c(O)c2F)C(=O)C1=O (single isomer, unassigned) [Example 207] | – | – | – | – | – | – | – | – | D (D represents a potency <10 μM) | > 4.52 | 16 to 32 (≈ 26.2 to 52.4 µM) | 16 to 32 (≈ 26.2 to 52.4 µM) | 16 to 32 (≈ 26.2 to 52.4 µM) | > 64 | > 64 | > 64 | 4 to 8 (≈ 6.55 to 13.1 µM) | > 64
NCCCN1CCN(C(=O)NC(C(=O)N[C@H]2Cc3cccc(C(=O)O)c3OB2O)c2c(F)cc(O)cc2F)C(=O)C1=O (stereo partly drawn) [Example 183, (3R)-3-(2-(4-(3-aminopropyl)-2,3-dioxopiperazine-1-carboxamido)-2-(2,6-difluoro-4-hydroxyphenyl)acetamido)-2-hydroxy-3,4-dihydro-2H-benzo[e][1,2]oxaborinine-8-carboxylic acid] | 16 to 32 (≈ 27.2 to 54.3 µM) | 16 to 32 (≈ 27.2 to 54.3 µM) | > 64 | > 64 | > 64 | > 64 | 1 to 2 (≈ 1.7 to 3.39 µM) | > 64 | D (D represents a potency <10 μM) | > 4.52 | – | – | – | – | – | – | – | –
CCN1CCN(C(=O)NC(C(=O)N[C@H]2Cc3cccc(C(=O)O)c3OB2O)c2cc([N+](=O)[O-])c(O)cc2F)C(=O)C1=O (stereo partly drawn) [Example 184, (3R)-3-(2-(4-ethyl-2,3-dioxopiperazine-1-carboxamido)-2-(2-fluoro-4-hydroxy-5-nitrophenyl)acetamido)-2-hydroxy-3,4-dihydro-2H-benzo[e][1,2]oxaborinine-8-carboxylic acid] | 1 to 2 (≈ 1.7 to 3.41 µM) | 4 to 8 (≈ 6.81 to 13.6 µM) | 4 to 8 (≈ 6.81 to 13.6 µM) | 16 to 32 (≈ 27.2 to 54.5 µM) | 4 to 8 (≈ 6.81 to 13.6 µM) | 16 to 32 (≈ 27.2 to 54.5 µM) | < 0.125 | 16 to 32 (≈ 27.2 to 54.5 µM) | D (D represents a potency <10 μM) | > 4.52 | – | – | – | – | – | – | – | –
CCN1CCN(C(=O)NC(C(=O)N[C@H]2Cc3cccc(C(=O)O)c3OB2O)c2ccc(O)c(Cl)c2F)C(=O)C1=O (stereo partly drawn) [Example 185, (3R)-3-(2-(3-chloro-2-fluoro-4-hydroxyphenyl)-2-(4-ethyl-2,3-dioxopiperazine-1-carboxamido)acetamido)-2-hydroxy-3,4-dihydro-2H-benzo[e][1,2]oxaborinine-8-carboxylic acid] | 4 to 8 (≈ 6.94 to 13.9 µM) | 4 to 8 (≈ 6.94 to 13.9 µM) | 4 to 8 (≈ 6.94 to 13.9 µM) | 16 to 32 (≈ 27.7 to 55.5 µM) | 16 to 32 (≈ 27.7 to 55.5 µM) | 16 to 32 (≈ 27.7 to 55.5 µM) | < 0.125 | 16 to 32 (≈ 27.7 to 55.5 µM) | D (D represents a potency <10 μM) | > 4.52 | – | – | – | – | – | – | – | –
